# Source: patent US9809521B2, “Cannabidinoid derivatives” (priority 2011, dated 2017)
# Tests used:
# U251 cells [1] = experiment: Apoptosis (annexin staining, FACS); format: cell-based, human
# Experimental: Apoptosis: Cells were grown in 6 well culture dishes and were treated with compounds of the disclosure every 24 hours for three days. […] The labeled cells were analyzed by flow cytometry. Cell Flow Cytometry in combination with PI and annexin staining was used to quantify the percentage of cells undergoing apoptosis in control and treatment groups. Percent control was calculated as annexin positive staining in treated cells/control cells×100. PI staining was used to distinguish necrotic cells from those undergoing apoptosis.
# Albeit, the magnitude of these effects was reduced compared to those observed with the combination treatment.
# The concentrations of the individual cannabinoids (THC and CBD) were next increased in order to attempt to match levels of apoptosis produced by the combination treatment. The purpose of these experiments was to determine whether the compounds alone recruited similar pathways as compared to the combination of THC and CBD. […] However, THC alone could not produce the level of apoptosis observed with the combination treatment (FIG. 23, panel A and B).
# Id-1 [2] = experiment: Immunohistochemical detection of Id-1 in lung metastatic foci; format: in vivo, mouse
# Experimental: CBD down-regulates Id-1 expression and breast cancer cell proliferation in lung metastatic foci. […] Lung tissue from mice treated with vehicle or CBD (1 mg/kg) were evaluated for Id-1 expression and Ki67, a marker of cellular proliferation (FIG. 5, panel A).
# Immunohistochemical detection of Id-1 and Ki67 was performed in lung tissues of vehicle and CBD treated mice. Nuclei were stained with hematoxylin. […] The intensity of the immunohistochemical (IHC) detection of Id-1 was then graded from 0 to 4.
# caspase 3, 7, 9 and PARP = experiment: Western analysis of caspases and PARP in U251 cells; format: cell-based, human; details: THC 1.7 μM, CBD 0.4 μM, three days
# Excerpt: Caspases play a primary role in the regulation of programmed cell death.
# 4T1 cells = experiment: In-vivo primary tumor proliferation (4T1 mammary fat pad, flank of Nude mice); design: species or system mouse; details: daily treatment from one week post injection
# Experimental: In-vivo studies of breast and brain tumor formation with CBD. The compounds of the disclosure were effective in inhibiting tumor formation in an in-vivo model. Breast cancer 4T1 cells were subcutaneously injected into the mammary fat pad of BALBc mice (FIG. 8, Panel A), or into the flank of Nude mice (FIG. 8, Panel B). After one week post injection, the mice were treated daily (systemic in A, and peritumoral in B) with CBD […]. Primary tumor volume was then calculated by measuring the perpendicular largest diameters of the tumor with a caliper and using the formula (L×W^2/2).
# pERK, JNK, p38 MAPK = experiment: Western analysis of MAPK activity in U251 cells
# U251 cells [3] = experiment: Boyden chamber invasion assay; format: cell-based, human
# Excerpt: Boyden chamber U251 cell invasion studies with CBD and/or Δ^9-THC. In addition to uncontrolled cell growth, a hallmark phenotype of aggressive GBM tumor cells is their ability to migrate away for the primary tumor of origin and invade into neighboring CNS tissue.
# SF126 cells = experiment: MTT cell proliferation assay; details: read-out: IC50, SF126; seven day treatment; 95% confidence limits in brackets
# U251 cells [4] = experiment: Organotypic brain slice invasion assay; format: cell-based, human; details: 1 μM
# Experimental: Effects of CBD on GBM cell invasion in In Vivo Studies. To determine whether CBD could inhibit GBM cell invasion through intact brain tissue, an organotypic brain slice assay was utilized. GFP-labeled U251 cells were treated for two days in culture with vehicle or CBD. On the third day, the cells were harvested and transferred to the top of a 0.5 mm coronal rat brain slice obtain from a postnatal day 3 rat pup. A porous cell culture insert containing the slice was suspended for three days in a well containing conditioned media with either vehicle or 1 μM CBD. […] GBM tumors were generated in nu/nu mice by intracranial injection of U251 GBM cells. […] CBD produced a robust reduction of GBM progression, decreasing the tumor area by 95% (FIG. 14, panels B and C). […] This occurred concomitantly with a decrease in tumor cell proliferation (the number of Ki67-positive nuclei was decreased by 87%±9 (p<0.0001, Student's t-test)) (FIG. 14, panel D).
# 4T1 breast cancer cells = experiment: Viability assay, combination with Paclitaxel; format: cell-based, mouse
# Experimental: Viability Assays using drug combinations and statistical analysis: Multiple viability assays in a 96 well format were run for each compound and the average percent inhibition of cell viability was calculated and transformed to fraction affected (Fa) i.e., percent inhibitory effect. Additional CI values and a dose reduction index (DRI) were also calculated using Compusyn software. After determining the (IC50/Fa0.5) values of the drugs individually, components were then combined at the following concentration ranges: controls, 0.125×IC50, 0.25×IC50, 0.5×IC50 and a combination index was calculated where CI<1, =1, and >1 indicate synergism, additive effect, and antagonism, respectively.
# Cell viability studies with 4T1 breast cancer cells using CBD in combination with Paclitaxel. […] The concentration response curves were first generated for Paclitaxel (PAC), CBD alone, and a combination of CBD and Paclitaxel (FIG. 11, panel A). The inhibitory values from the concentration response curves were then used to calculate combination index (CI) values at multiple combination ratios (FIG. 11, panel B). From which, the data was also used to calculate i) IC50 values, the slope of the curve (m) and a goodness of fit value (r).
# Id-1 [5] = experiment: Quantitative Western analysis of Id-1 expression in U251 cells; format: cell-based, human
# Experimental: Quantitative Western analysis of Id-1 expression in U251 cells with or without CBD treatment. To examine whether CBD would downregulate Id-1 protein expression in a GBM based cell line, quantitative Western analysis was performed with U251 cells.
# CB1 receptors = CB1 receptors (Homo sapiens, UniProt P21554); experiment: Affinity for CB1 receptors; format: binding
# CB1 receptors, sequence (P21554 whole entry): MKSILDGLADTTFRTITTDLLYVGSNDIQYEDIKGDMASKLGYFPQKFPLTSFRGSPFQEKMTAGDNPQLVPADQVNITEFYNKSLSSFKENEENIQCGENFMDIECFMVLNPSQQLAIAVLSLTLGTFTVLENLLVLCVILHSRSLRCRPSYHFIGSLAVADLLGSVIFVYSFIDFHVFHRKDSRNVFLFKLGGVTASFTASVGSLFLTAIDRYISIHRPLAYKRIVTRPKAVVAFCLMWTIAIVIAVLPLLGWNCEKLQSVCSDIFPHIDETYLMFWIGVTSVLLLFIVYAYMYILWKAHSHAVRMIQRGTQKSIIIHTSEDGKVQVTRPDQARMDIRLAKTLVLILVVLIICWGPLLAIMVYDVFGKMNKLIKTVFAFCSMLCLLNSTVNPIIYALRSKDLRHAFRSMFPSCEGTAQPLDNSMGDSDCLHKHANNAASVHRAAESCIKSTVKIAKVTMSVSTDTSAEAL
# [6] = Tetrad assay (psychoactive properties of cannabinoids); details: in vivo
# Id-2 = experiment: Western analysis of Id-2 expression in breast cancer cells; format: cell-based, human; details: 1.0 μM, three days
# Id-1 [7] = experiment: Quantitative Western analysis of Id-1 expression in 4T1 cells; format: cell-based, mouse; details: 1.0 μM, two days
# Experimental: To examine whether CBD or O-1663 CBD analog would inhibit Id-1 protein expression in cells proposed for the in-vivo metastic cancer model, quantitative Western analysis was performed with 4T1 cells. 4T1 cells were treated with 1.0 μM of cannabinoid for two days and then analyzed for Id-1 protein expression.
# [8] = Toxicity observation in the mouse models of metastasis; details: in vivo
SMILES,"block of apoptosis by CB2 antagonist SR144528 (U251 cells [1]; 0.5 μM SR144528, combination 1.7/0.4 μM, 2.5 μM THC, 2.0 μM CBD)","block of apoptosis by α-tocopherol (U251 cells [1]; 20 μM α-tocopherol, combination 1.7/0.4 μM, 2.5 μM THC, 2.0 μM CBD)","apoptosis (annexin) (U251 cells [1]; THC 1.7 μM, CBD 0.4 μM, three days)",lung foci strongly positive for Id-1 (Id-1 [2]; 1 mg/kg) [%],"intensity of IHC detection of Id-1, grade 0 to 4, average (Id-1 [2]; mouse, in vivo)","caspase 3, 7, 9 and PARP (caspase 3, 7, 9 and PARP)",tumor proliferation in-vivo (primary tumor volume) (4T1 cells),"p-ERK, higher concentrations alone (pERK, JNK, p38 MAPK; 2.5 μM Δ^9-THC, 2.0 μM CBD, three days)","pERK (pERK, JNK, p38 MAPK; THC 1.7 μM, CBD 0.4 μM, two days)",invasiveness of U251 cells (U251 cells [3]),IC50 (SF126 cells) [nM],invasion of U251 cells through the organotypic brain slice (U251 cells [4]),interaction with Paclitaxel (combination index) (4T1 breast cancer cells),Id-1 protein expression (Id-1 [5]),affinity for CB1 receptors (CB1 receptors),activity in the tetrad assay [6],up-regulation of Id-2 expression (Id-2),Id-1 protein expression compared with CBD (Id-1 [7]),"overt toxicity (weight, appearance, general activity) [8]"
"C=C(C)[C@@H]1CCC(C)=C[C@H]1c1c(O)cc(CCCCC)cc1O [CBD, cannabidiol]",no reversal was observed with SR144528,completely blocked by α-tocopherol,did not produce significant changes in apoptosis,5.6,around 1,no changes in caspase activity were observed,potent inhibitor of tumor proliferation,small inhibition of p-ERK,no changes in pERK were observed,significantly reduce the invasiveness of U251 cells,730,highly effective at inhibiting invasion,acts synergistically with Paclitaxel,concentration-dependent inhibition of Id-1 protein expression,–,–,–,–,–
CCCCC(C)(C)c1cc(O)c(C2CCC(C3CCCCC3)CC2)c(O)c1 (stereo not shown) [Compound O-1663],–,–,–,–,–,–,–,–,–,–,–,–,–,–,lower affinity for CB1 receptors in comparison to THC,little activity in the tetrad assay,more potent than CBD at up-regulating Id-2 expression,downregulated Id-1 protein expression to a far greater extent than CBD,No overt toxicity
